These are literature values, as cited in US20110086369A1, “FLUORESCENT COMPOUNDS FOR THE DIAGNOSIS OF INFECTIONS, PRODUCTION METHOD, AND APPLICATIONS THEREOF” (priority 2008, published 2011).

In this series the test system is Leishmania. As to conditions: in Leishmania.

On to `CCCCCCCCCCCCCCCCOP(=O)([O-])OCC[N+](C)(C)C` [MT, hexadecylphosphocholine], for which the intracellular concentration result is listed as “values in the millimolar rank”.
